These are literature values, as cited in patent US20150133409A1, “TOPICAL OPHTHALMIC, OTIC, AND NASAL COMPOSITIONS OF CIPROFLOXACIN” (priority 2013, published 2015).

For the series the following is noted: aqueous 0.2 to 1 weight percent ciprofloxacin.

Read-outs that look alike come from different tables or passages of the source.

Turning to `O=C(O)c1cn(C2CC2)c2cc(N3CCNCC3)c(F)cc2c1=O` [ciprofloxacin], the “pH at which crystalline precipitation of ciprofloxacin occurs” value by setting is: (5° C.) “above 5”; (room temperature) “above 5.5”.
